Common to all, as to assay type: cell-based
The subject of one test is A549. Description: Cell viability (CellTiter-Blue, 72 h), A549 lung cancer cells. Particulars: Homo sapiens. How it is done:
(§1) The following cell lines were tested in this example: Lung Cancer (A549, NCI-H460); Pancreatic cancer (PANC1, Mia-Pa-Ca-2); Melanoma (WM115, A375); Ovarian cancer (OVCAR3, SKOV3); Gastric cancer (MKN45, HGC-27); Renal cancer (ACHN) and Bladder Cancer (RT112).
(§2) Each tumour cell line was maintained in vitro in RPMI 1640+10% heat inactivated FBS and 2 mM L-glutamine (growth media) at 37° C. in 5% CO2 and humidified conditions. The cells were harvested, washed, re-suspended into growth medium and counted. The cells were re-suspended into assay media (RPMI 1640+5% heat inactivated FBS+ and 2 mM L-glutamine) at 4×10^4 cells/ml (dependent upon cell type) and plated into the middle 240 wells of 384 well tissue culture plates (Corning CellBind, black-wall plates) 25 μl/well aliquots; 50 μl of growth media was aliquoted into the outer wells. There were 3 plates for each cell line.
(§3) The plates were incubated overnight at 37° C., in 5% humidified CO2.
(§4) The phytocannabinoid test compounds were prepared in 100% DMSO vehicle at a stock concentration of 20 and 40 mM.
(§5) Starting with the 20 mM stock in DMSO, this was serially diluted (2 fold) in DMSO in a 96-well plate, to 20 (no dilution), 10, 5, 2.5, 1.25, 0.625, 0.315, 0.157 and […]. Following this, 10 ul of each compound dilution was diluted into 990 ul of 1% (v/v) FBS media in a deep well block making the final concentrations of 200, 100, 50, 25, 12.5, 6.25, 3.125, 1.56 and 0.79 μM (2× final assay concentrations and 1% DMSO).
(§6) An equal volume of each cannabinoid in the combination (stock concentration 40 mM) was mixed together to make a stock of 20 mM of each cannabinoid in DMSO. This was serially diluted (2 fold) in DMSO in a 96-well plate, to 20 (no dilution), 10, 5, 2.5, 1.25, 0.625, 0.315, 0.157 and […]. Following this, 10 ul of each combination dilution was diluted into 990 ul of 1% (v/v) FBS media in a deep well block making the final concentrations of 200, 100, 50, 25, 12.5, 6.25, 3.125, 1.56 and 0.79 μM (2× final assay concentrations and 1% DMSO).
(§7) Taxotere SOC was prepared in 100% DMSO to give a stock concentration of 10 mM. This was diluted in DMSO from the stock solution to 200 μM, then serially diluted (3-fold) in DMSO to 200 (no dilution), 66.66, 22.22, 7.41, 2.47, 0.82, 0.27, 0.09, 0.03 μM. 10 ul of each of the taxotere dilutions was diluted in 990 ul of 1% (v/v) FBS media making the final concentrations of 2, 0.67, 0.22, 0.074, 0.0247, 0.0082, 0.0027 0.0009, 0.0003 μM (2× final assay concentrations and 1% DMSO).
(§8) The plates were incubated for 72 h at 37° C. in 5% humidified CO2. To develop the plates, at 72 h, 10 μl of CellTiter-Blue™ reagent was added to each test/blank well.
(§9) The plates were incubated at 37° C., 5% humidified CO2. Fluorescence was measured using a Flex II Station plate reader (570 nm excitation wavelength, 600 nm emission wavelength, 590 nm cut-off) after 3 h.
(§10) The phytocannabinoid compounds CBD, CBGA, CBG, CBDA, THCV and THC were tested on a panel of lung (A549, NCI-H460), pancreatic (PANC1, Mia-Pa-Ca-2), melanoma (WM115, A375), ovarian (OVCAR3, SKOV3), gastric (MKN45, HGC-27), renal (ACHN) and bladder (RT112) cancer cell lines according to the protocol for 72 h in media containing 1% FBS.
(§11) The IC50 values for each phytocannabinoid and combination of CBD with the other phytocannabinoids was calculated for each cell line. The raw data values expressed in relative fluorescent units were normalised to the vehicle for each individual plate and any reduction in fluorescence indicated a decrease in viability.
(§12) This calculation was as described in Example 1 above.

The subject of the next test is MKN45. Description: Cell viability (CellTiter-Blue, 72 h), MKN45 gastric cancer cells. Particulars: Homo sapiens, MKN-45. How it is done:
as §1, §2, §3, §4, §5, §6
(§13) Cisplatin (stock of 1 mg/ml=3.33 mM in water) was diluted in 1% FBS media to give a stock concentration of 1 mM. This was then diluted in 1% FBS media from the stock solution to 200 μM, then serially diluted (3-fold) in 1% FBS media to 200 (no dilution), 66.66, 22.22, 7.41, 2.47, 0.82, 0.27, 0.09, 0.03 μM (2× final assay concentrations; no DMSO).
as §8, §9, §10, §11, §12
In general terms: Alamar Blue is a resazurin reagent that responds to reducing activity.

Another test relates to A375. As to the kind of experiment: Cell viability (CellTiter-Blue, 72 h), A375 melanoma cells. Particulars: Homo sapiens, A-375, A375, 1% FBS. How it is done: as §1, §2, §3, §4, §5, §6, §13, §8, §9, §10, §11, §12
For the next test, the system named is HGC-27. Description: Cell viability (CellTiter-Blue, 72 h), HGC-27 gastric cancer cells. Particulars: Homo sapiens. Here is the method: as §1, §2, §3, §4, §5, §6, §13, §8, §9, §10, §11, §12
Another test concerns ACHN. Description: Cell viability (CellTiter-Blue, 72 h), ACHN renal cancer cells. Particulars: Homo sapiens. How it is done: as §1, §2, §3, §4, §5, §6, §7, §8, §9, §10, §11, §12
Where [1] appears, read: A549, 72 h, read-out: Cell line IC50 value.
Where [2] appears, read: A549, read-out: Dm (median effect dose).
Setting [3] is: MKN45, 1% FBS, 72 h, read-out: Cell line IC50 value.
The mark [4] stands for this setting: MKN45 cells, 1% FBS, read-out: Dm (potency, median effect).
The mark [5] stands for this setting: 72 h, read-out: Cell line IC50 value.
The mark [6] stands for this setting: read-out: Dm (median effect dose).
Where [7] appears, read: HGC-27, HGC27 cells, 1% FBS, read-out: Dm (potency, median effect).
[8] abbreviates: HGC-27, 1% FBS, 72 h, read-out: Cell line IC50 value.
The mark [9] stands for this setting: read-out: Dm (potency, median effect).

Where two headings read alike, the source gives them in different places.

As to `C=C(C)[C@@H]1CCC(C)=C[C@H]1c1c(O)cc(CCCCC)cc1O` [CBD, Cannabidiol], the IC50 was determined as 3.2 µM in the test on A549 (setting [1]); 2.87 µM in the test with A549 (setting [2]); 3.4 µM in the test with MKN45 (setting [3]); 3.91 µM with MKN45 (setting [4]); 2.9 µM in the test on A375 (setting [5]); 2.66 µM in the test on A375 (setting [6]). Further, the IC50 in the test on HGC-27 (setting [7]) worked out at 1.72 µM; in the test with HGC-27 (setting [8]) it was 1.5 µM; in the test with ACHN (setting [5]), 3.3 µM; in the test on ACHN (setting [9]) it was 3.11 µM.
In the case of `C=C(C)[C@@H]1CCC(C)=C[C@H]1c1c(O)cc(CCCCC)c(C(=O)O)c1O` [CBDA, Cannabidiolic acid], the IC50 in the test on A549 (setting [1]) was 8.5 µM; in the test with A549 (setting [2]), 7.6 µM; in the test with MKN45 (setting [3]), 8.8 µM; in the test with MKN45 (setting [4]), 8.04 µM; in the test on A375 (setting [5]) it was 10.2 µM; in the test on A375 (setting [6]), 9.78 µM. Also, the IC50 in the test with HGC-27 (setting [7]) is 10.4 µM; with HGC-27 (setting [8]), 1.3 µM; in the test on ACHN (setting [5]), 10.7 µM; in the test on ACHN (setting [9]) it was 8.44 µM.
Take `CCCCCc1cc(O)c(C/C=C(\C)CCC=C(C)C)c(O)c1` [CBG, Cannabigerol]: the IC50 stood at 4.3 µM in the test with A549 (setting [1]); 4.23 µM with A549 (setting [2]); 4.3 µM with MKN45 (setting [3]); 4.16 µM with MKN45 (setting [4]); 2.1 µM in the test with A375 (setting [5]); 1.89 µM with A375 (setting [6]). The IC50 in the test with HGC-27 (setting [7]) amounted to 1.73 µM; in the test on HGC-27 (setting [8]), 1.6 µM; in the test on ACHN (setting [5]), 3 µM; with ACHN (setting [9]), 2.96 µM.
`CCCCCc1cc(O)c(C/C=C(\C)CCC=C(C)C)c(O)c1C(=O)O` [CBGA, Cannabigerolic acid]: the IC50 in the test with A549 (setting [1]) is 6.1 µM; with A549 (setting [2]), 6.89 µM; with MKN45 (setting [3]), 6.5 µM; in the test on MKN45 (setting [4]), 6.4 µM; in the test on A375 (setting [5]) it was 7.3 µM; in the test with A375 (setting [6]) it was 6.66 µM. Besides, the IC50 in the test with HGC-27 (setting [7]) came to 5.47 µM; with HGC-27 (setting [8]), 7.8 µM; in the test with ACHN (setting [5]), 11.6 µM; in the test on ACHN (setting [9]), 12 µM.
Take `CCCCCc1cc(O)c2c(c1)OC(C)(C)[C@@H]1CCC(C)=C[C@@H]21` [THC, Tetrahydrocannabinol, reference compound]: the IC50 in the test with A549 (setting [1]) stood at 5.5 µM; in the test with A549 (setting [2]) it was 4.08 µM; in the test with MKN45 (setting [3]), 4.2 µM; in the test with MKN45 (setting [4]), 4.42 µM; with A375 (setting [5]), 2.7 µM; with A375 (setting [6]), 2.47 µM. In addition, the IC50 with HGC-27 (setting [7]) is 2.74 µM; in the test on HGC-27 (setting [8]), 2.8 µM; in the test on ACHN (setting [5]), 3.6 µM; in the test with ACHN (setting [9]), 4.4 µM.
For `CCCc1cc(O)c2c(c1)OC(C)(C)[C@@H]1CCC(C)=C[C@@H]21` [THCV, Tetrahydrocannabivarin], the IC50 was 7.4 µM in the test with A549 (setting [1]); 6.59 µM in the test with A549 (setting [2]); 6.5 µM in the test on MKN45 (setting [3]); 6.88 µM in the test with MKN45 (setting [4]); 5 µM in the test with A375 (setting [5]); 5.54 µM in the test with A375 (setting [6]). In addition, the IC50 in the test on HGC-27 (setting [7]) turned out to be 3.06 µM; with HGC-27 (setting [8]), 4.1 µM; in the test on ACHN (setting [5]), 6.8 µM; in the test with ACHN (setting [9]), 6.76 µM.
Regarding `CC(=O)O[C@@]12CO[C@@H]1C[C@H](O)[C@@]1(C)C(=O)[C@H](O)C3=C(C)[C@@H](OC(=O)[C@H](O)[C@@H](NC(=O)OC(C)(C)C)c4ccccc4)C[C@@](O)([C@@H](OC(=O)c4ccccc4)[C@H]21)C3(C)C` [Taxotere, Docetaxel, reference compound], the IC50 turned out to be 0.0006 µM in the test on A549 (setting [1]) and 0.0018 µM in the test on ACHN (setting [5]).

The values above are taken from patent publication US9962341B2, “Active pharmaceutical ingredient (API) comprising cannabinoids for use in the treatment of cancer” (GW Pharma Limited, priority 2014, dated 2018).
